According to US20240335371A1, “MAGNESIUM SULFATE AND FORSKOLIN FOR TREATMENT OF SEXUAL DISORDERS AND BENIGN PROSTATIC HYPERPLASIA” (State-of-the-Art Technologies, Inc., priority 2023, published 2024):
Read-outs that look alike come from different tables or passages of the source.

Key:
female low libido = details: cited from earlier work; for side effects: in vivo
ED = details: cited from earlier work
[1] = system: penis or female genitalia; assay: Topical or transdermal administration of magnesium sulfate or forskolin to male and female subjects
Text: The composition is generally applied generously to the penis and massaged thoroughly. In females, the composition may be applied to the female genitals and massaged. In various embodiments, the composition may also be applied on a penis or sex toy or suppository inserted into the vagina or ano-rectal region, or as a condom lubricant, penile lubricant, vaginal lubricant or anal lubricant.

[2] = cited from earlier work

CCCC[C@H](NC(C)=O)C(=O)N[C@H]1CC(=O)NCCCC[C@@H](C(=O)O)NC(=O)[C@H](Cc2c[nH]c3ccccc23)NC(=O)[C@H](CCCN=C(N)N)NC(=O)[C@@H](Cc2ccccc2)NC(=O)[C@H](Cc2cnc[nH]2)NC1=O [Bremelanotide]
side effects (female low libido): Nausea is a common side effect | effect on number of satisfying sexual events compared to placebo (female low libido; self-administered injection about 45 minutes before a sexual encounter): minimal effect

CCCCC[C@H](O)/C=C/[C@H]1[C@H](O)CC(=O)[C@@H]1CCCCCCC(=O)O [alprostadil]
efficacy in ED (ED; intraurethral deposition): not effective in all patients

CN1CCc2cccc3c2[C@H]1Cc1ccc(O)c(O)c1-3 [apomorphine]
efficacy in ED (ED; oral and sublingual therapies): neither compound has demonstrated efficacy across a broad range of subjects

O=c1[nH]c2ccccc2n1CCN1CCN(c2cccc(C(F)(F)F)c2)CC1 [flibanserin]
side effects (female low libido): sleepiness and fainting | effect compared to placebo (female low libido; oral pill taken daily): minimal compared to placebo

C=C[C@@]1(C)CC(=O)[C@]2(O)[C@@]3(C)[C@@H](O)CCC(C)(C)[C@@H]3[C@H](O)[C@H](OC(C)=O)[C@@]2(C)O1 [forskolin, 7beta-acetoxy-8, 13-epoxy-1a, 6β, 9a-trihydroxy-labd-14-en-11-one]
systemic side effects or drug interactions ([1]; human, in vivo): no systemic side effects or drug interactions | lipid solubility [2]: lipid-soluble | solubility in water ([2]; water): water soluble

O=[N+]([O-])OCC(CO[N+](=O)[O-])O[N+](=O)[O-] [glyceryl trinitrate (GTN), glyceryl trinitrate]
efficacy in ED and side effects (ED; patches applied to the penis): effective but produces side effects in both patient and partner

O=S(=O)([O-])[O-].[Mg+2] [magnesium sulfate]
systemic side effects or drug interactions ([1]; administered topically or by transdermal delivery): no systemic side effects or drug interactions | taste of magnesium in mouth after topical administration (increased blood levels) ([1]; topical administration): tasted magnesium in their mouth within one minute | testosterone and libido ([1]; topical or transdermal administration, males and females): increased testosterone with increased libido in both males and females lasting for several weeks | increase in penile length, size and turgidity versus control gel (KY jelly) ([1]; topical or transdermal application to the penis): significantly exceeds that obtained by topical or transdermal application of a control gel

Cc1ccc(N(CC2=NCCN2)c2cccc(O)c2)cc1 [phentolamine]
efficacy in ED (ED; oral and sublingual therapies): neither compound has demonstrated efficacy across a broad range of subjects
